Data on 8 compounds can be found in patent publication US20230312587A1, “PTERIDINONE COMPOUNDS AND USES THEREOF” (Vertex Pharmaceutical Incorporated, priority 2018, published 2023).

In assay [1] the target is HEK293 membranes over-expressing WFS-1 (Homo sapiens (Human), UniProt O76024). Put plainly: Radioligand displacement assay (tritiated Compound 136 probe). In kind it is binding. Conditions: displacement of tritiated Compound 136. An outline of the steps:
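WFS-1-overexpressing HEK293 membranes were preincubated 10 min with compound, then tritiated probe was added for 90 min at room temperature. Bound probe was collected by filtration on PEI-pretreated GF/B filters, washed and scintillation-counted. IC50 came from a 3-parameter fit of bound probe vs compound concentration.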
A general note: In a radioligand displacement assay an active substance lowers the binding of a labelled ligand.

Assay [2] deals with β-catenin-TCF-mediated reporter transcription activity in Colo 205 cells. Description: Colo 205 reporter assay (TCF/LEF luciferase). Conditions: Homo sapiens, COLO 205, 5 h, five hours after addition of compound. In kind it is cell-based. An outline of the steps: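 Luciferase signal from a TCF/LEF-driven reporter, stably integrated in Colo 205 colon cancer cells, was measured 5 h after compound addition.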
Background: In a reporter assay the amount or activity of a reporter protein is the signal.

Where [3] appears, read: Colo 205 TCF/LEF luciferase reporter, read-out: TCF reporter Colo205 IC50.

pIC50: −log10 of the molar value. Where two headings read alike, the source gives them in different places.

Chain of HEK293 membranes over-expressing WFS-1 (O76024 whole entry): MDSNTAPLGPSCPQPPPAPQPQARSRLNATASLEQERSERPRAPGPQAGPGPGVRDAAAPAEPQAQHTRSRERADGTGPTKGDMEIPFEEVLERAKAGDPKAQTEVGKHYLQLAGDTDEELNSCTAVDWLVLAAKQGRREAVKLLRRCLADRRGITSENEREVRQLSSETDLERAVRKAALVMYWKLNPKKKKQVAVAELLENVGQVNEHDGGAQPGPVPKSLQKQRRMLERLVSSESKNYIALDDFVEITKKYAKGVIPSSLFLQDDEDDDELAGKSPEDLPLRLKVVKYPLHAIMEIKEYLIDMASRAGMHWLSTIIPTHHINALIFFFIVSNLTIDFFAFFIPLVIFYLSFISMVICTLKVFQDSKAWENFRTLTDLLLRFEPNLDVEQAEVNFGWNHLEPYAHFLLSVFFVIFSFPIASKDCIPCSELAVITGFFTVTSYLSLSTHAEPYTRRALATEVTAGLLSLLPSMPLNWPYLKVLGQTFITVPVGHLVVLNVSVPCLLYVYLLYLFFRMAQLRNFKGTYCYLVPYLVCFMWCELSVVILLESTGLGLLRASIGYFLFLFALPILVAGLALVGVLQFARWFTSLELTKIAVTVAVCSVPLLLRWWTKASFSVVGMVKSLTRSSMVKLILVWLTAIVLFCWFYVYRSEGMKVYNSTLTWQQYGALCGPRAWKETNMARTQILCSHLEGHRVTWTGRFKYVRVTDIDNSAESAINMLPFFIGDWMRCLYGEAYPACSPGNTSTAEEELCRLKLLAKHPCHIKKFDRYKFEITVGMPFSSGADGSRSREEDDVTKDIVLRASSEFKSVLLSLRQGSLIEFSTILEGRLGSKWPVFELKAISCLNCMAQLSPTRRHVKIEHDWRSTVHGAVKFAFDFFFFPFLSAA

Regarding `CC(=O)N(Cc1cnn(Cc2ccc(C(F)(F)F)nc2)c1)c1nc(C)c2c(n1)N(C)[C@@H](C)C(=O)N2` [Compound 405, (7S)-N-((1-((6-(trifluoromethyl)pyridin-3-yl)methyl)-1H-pyrazol-4-yl)methyl)-N-(4,7,8-trimethyl-6-oxo-5,6,7,8-tetrahydropteridin-2-yl)acetamide], the pIC50 in assay [1] was at most 5.52; in assay [2] (Colo 205 cells with stably transfected TCF/LEF luciferase reporter, read-out: TCF reporter Colo205), at most 5.30.

With `Cc1nc(NCc2cnn(Cc3ccc(F)cc3)c2)nc2c1NC(=O)[C@H](C)N2C` [Compound 4, (7S)-2-(((1-(4-fluorobenzyl)-1H-pyrazol-4-yl)methyl)amino)-4,7,8-trimethyl-7,8-dihydropteridin-6(5H)-one], the pIC50 was 6.22 to 7.22 in assay [1] and over 6.52 in assay [2] (setting [3]).

Consider `Cc1nc(NCc2cnn(Cc3ccc(C(F)(F)F)nc3[C@@H](C)O)c2)nc2c1NC(=O)[C@H](C)N2C` (single isomer, unassigned) [Compound 420], for which the pIC50 was 6.22 to 7.22 in assay [1] and over 6.52 in assay [2] (setting [3]).

On to `Cc1nc(NCc2cnn(Cc3cnc(Cl)c(F)c3)c2)nc2c1NC(=O)[C@H](C(C)C)N2C` [Compound 424, (7S)-2-(((1-((6-chloro-5-fluoropyridin-3-yl)methyl)-1H-pyrazol-4-yl)methyl)amino)-7-isopropyl-4,8-dimethyl-7,8-dihydropteridin-6(5H)-one], for which the pIC50 was over 7.22 in assay [1] and over 6.52 in assay [2] (setting [3]).

`Cc1nc(NCc2cnn(Cc3ccc(C(F)(F)F)nc3C(C)O)c2)nc2c1NC(=O)[C@H](C)N2C` (stereo partly drawn) [Compound 419, (7S)-2-(((1-((2-((S)-1-hydroxyethyl)-6-(trifluoromethyl)pyridin-3-yl)methyl)-1H-pyrazol-4-yl)methyl)amino)-4,7,8-trimethyl-7,8-dihydropteridin-6(5H)-one]: the figures for the pIC50 in assay [1] and in assay [2] (setting [3]) were 6.22 to 7.22 and over 6.52, respectively.

As for `Cc1nc(NCc2cnn(Cc3ccc(C(F)(F)F)nc3Cl)c2)nc2c1NC(=O)[C@H](C)N2C` [Compound 418, (7S)-2-(((1-((2-chloro-6-(trifluoromethyl)pyridin-3-yl)methyl)-1H-pyrazol-4-yl)methyl)amino)-4,7,8-trimethyl-7,8-dihydropteridin-6(5H)-one], the pIC50 in assay [1] was over 7.22; in assay [2] (setting [3]) it was over 6.52.

As to `Cc1nc(NCc2cnn([C@@H](C)c3ccc(C(F)(F)F)nc3)c2)nc2c1NC(=O)[C@H](C)N2C` [Compound 174, (7S)-4,7,8-Trimethyl-2-(((1-((S)-1-(6-(trifluoromethyl)pyridin-3-yl)ethyl)-1H-pyrazol-4-yl)methyl)amino)-7,8-dihydropteridin-6(5H)-one], the pIC50 was 6.22 to 7.22 in assay [1] and over 6.52 in assay [2] (setting [3]).

In the case of `Cc1nc(N[C@H]2C[C@H](Oc3ccc(C(F)(F)F)nc3)C2)nc2c1NC(=O)[C@H](C)N2C` [Compound 324, (7S)-4,7,8-trimethyl-2-((trans-3-((6-(trifluoromethyl)pyridin-3-yl)oxy)cyclobutyl)amino)-7,8-dihydropteridin-6(5H)-one], the pIC50 in assay [1] was over 7.22; in assay [2] (setting [3]) it was over 6.52.
